The record followed here is the METLIN SMRT retention time set (Domingo-Almenara et al. 2019).

This series is described as follows: gradient 5% acetonitrile 3 min, to 50% in 2 min, to 85% in 15 min, held 3 min, 100 µL/min. Particulars: column: Zorbax Extend-C18 2.1 x 50 mm; eluents: water / acetonitrile, 0.1% formic acid. The method, boiled down:
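Over 3 months, pure standards in mixtures of ~100 molecules were run by HPLC coupled to a quadrupole time-of-flight mass spectrometer in positive and negative ionization mode. The column was a Zorbax Extend-C18 (2.1 × 50 mm, 1.8 μm) at 100 μL/min, eluted with water and acetonitrile each holding 0.1% formic acid, with 40 μL dead and 900 μL dwell volumes. Retention time was determined from adduct peaks chosen by software and checked manually.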
`Cc1cccc(-c2noc(Cn3nc(-c4ccccc4)ccc3=O)n2)c1` returned an RP-LC retention time of 1060 s.
`Cc1cccc(C2CCCN2C(=O)c2cnn3cc(Br)cnc23)c1` (stereo unspecified) showed an RP-LC retention time of 869 s.
The compound `Nc1cccc(-c2ccc(N3CCOCC3)nn2)c1` showed an RP-LC retention time of 546 s.
In turn, `Cc1nc(-c2csc(S(=O)(=O)N3CCC(C(=O)NCc4ccc(Cl)cc4)CC3)c2)no1` showed an RP-LC retention time of 926 s.
Consider `O=C(Nc1ccc(Br)cc1F)C1CCN(C(=O)c2cc(-c3ccncc3)n[nH]2)CC1`, for which the RP-LC retention time came out at 632 s.
For `COc1cccc(CN2CCc3nc(N4CCN(c5ccccc5)CC4)ncc3C2)c1OC`, the RP-LC retention time worked out at 762 s.
In the case of `CCn1ncc(N2CCCC(CC(=O)O)C2)cc1=O` (stereo unspecified), the RP-LC retention time was 632 s.
The result for `O=C1NC2(CCN(C(=O)Nc3ccccc3)CC2)Oc2ccccc21` reads 721 s; that for `Cn1c(=O)n([C@H]2CCN(C(=O)C3(c4ccccc4)CC3)C2)c2ncccc21`, 733 s; that for `Cc1cc(-c2nnc(-c3ccco3)o2)c(C)n1CC(=O)NCc1ccc(F)cc1Cl`, 881 s.
The result for `COc1ccc(NC(=O)C2CCc3nc(N4CCC(C)CC4)ncc3C2)c(OC)c1` (stereo unspecified) reads 873 s; that for `Cc1c(Cl)cccc1NC(=O)Cn1c(C)nc2c(sc3nc(-c4ccccc4)ccc32)c1=O`, 1210 s; that for `Cc1ccccc1S(=O)(=O)N1CCC(n2cnnc2C(C)C)CC1`, 738 s.
Regarding `COc1ccc(CC(=O)N2C[C@@H]3C[C@H](NS(C)(=O)=O)[C@H]2C3)cc1Cl`, the RP-LC retention time is 651 s.
As for `Cn1c(=O)c2nc(S(=O)(=O)CCC(=O)Nc3ccc(F)c(Cl)c3)n(C)c2n(C)c1=O`, the RP-LC retention time was 756 s.
For the compound `Cn1c(=O)c2ccn(CC(=O)N3CCC(Cc4ccccc4)CC3)c2n(C)c1=O`, the RP-LC retention time worked out at 782 s.
With `CCOc1ccc(-c2csc3c(=O)n(Cc4ccccn4)cnc23)cc1OCC` the figure was 865 s; with `CC(=O)N1CCc2ccccc2C1C(=O)NCc1ccccc1C` (stereo unspecified), 788 s; with `CCOCCCNC(=O)C1CCCN(C(=O)c2cc(C)cc(C)c2)C1` (stereo unspecified), 743 s.
Take `Cc1cc(C)n(Cc2ccc(C(=O)N3CCN(Cc4noc5ccccc45)CC3)o2)n1`: the RP-LC retention time turned out to be 672 s.
The compound `c1coc(CN2CC(Oc3ccc(-c4noc(-c5ccncc5)n4)cc3)C2)c1` displayed an RP-LC retention time of 665 s.
In the case of `O=C(Nc1cccc(Br)c1)C(=O)c1c[nH]c2ccccc12`, the RP-LC retention time is 1060 s.
With `Cc1ccc(N2C(=O)CN(S(C)(=O)=O)CC2(C)C(=O)NCc2ccc(F)cc2)c(C)c1` (stereo unspecified), the RP-LC retention time was found to be 834 s.
For the compound `Cc1cc(C)cc(N2CCC(NC(=O)c3ccccc3)C2=O)c1` (stereo unspecified), the RP-LC retention time stood at 857 s.
On to `COc1ccc(C)cc1Nc1nc(C(=O)Nc2cccnc2)cs1`, for which the RP-LC retention time worked out at 637 s.
With `CCN1CCCn2cc(S(=O)(=O)N3CCN(c4cccc(Cl)c4)CC3)cc2C1=O`, the RP-LC retention time worked out at 894 s.
Compound `CCn1ncc(CN2CCC[C@H]2c2nc(-c3ccccc3)n[nH]2)c1C` came in with an RP-LC retention time of 601 s.
With `COc1ccc(NC(=O)CCOc2ccccc2)cc1` the figure was 763 s; with `CO[C@@H]1C=C2CCN(C)[C@@H]2C2c3cc4c(cc3C(=O)O[C@H]21)OCO4` (stereo partly specified), 636 s; with `CCc1cccc(C)c1Nc1c(-c2cc(Br)ccc2O)nc2ncccn12`, 1090 s.
On to `N#Cc1cccc(-c2cn3c(n2)N(C(=O)c2ccoc2)CCC3)c1`, for which the RP-LC retention time was determined as 644 s.
`CCn1cc(C2=CCN(C(=O)Nc3cc(Cl)ccc3C)CC2)c2cccnc21`: the RP-LC retention time was 999 s.
Compound `Cn1cc(-c2cc3n(n2)CCC(=O)N3CCCC(=O)N2CCCCC2)c2ccccc21` displayed an RP-LC retention time of 802 s.
`COc1cccc(-c2cc3c(=O)n(CC(O)c4ccccc4)ccn3n2)c1` (stereo unspecified) yielded an RP-LC retention time of 860 s.
Take `O=C(Nc1ccccc1C(F)(F)F)N1CCc2nc[nH]c2C1`: the RP-LC retention time is 558 s.
For the compound `CNc1nc(Nc2ccc(OC)cc2)nc2ccccc12`, the RP-LC retention time came to 641 s.
As for `O=C(NC1CCCC1)C1CCCN(S(=O)(=O)c2c[nH]c(C(=O)N3CCCC3)c2)C1` (stereo unspecified), the RP-LC retention time was found to be 698 s.
Take `Cc1cc(C)cc(NC(=O)Cn2cnc3nc(N4CCC(C(=O)NC5CC5)CC4)sc3c2=O)c1`: the RP-LC retention time was 713 s.
In turn, `O=C(Cn1nc2c3cc(F)ccc3ncn2c1=O)Nc1ccc(Cl)cc1` came in with an RP-LC retention time of 744 s.
In the case of `Cc1cc2c(cc1S(=O)(=O)N1CCCC1C(=O)Nc1cccc(Cl)c1C)OC(C)C(=O)N2` (stereo unspecified), the RP-LC retention time worked out at 891 s.
`O=C(c1cn2ccccc2n1)N1CCN(c2ccccc2Cl)CC1` yielded an RP-LC retention time of 854 s.
`CC1=C(c2cccc(Cl)c2)S(=O)(=O)N=C1N1CCCN(C(=O)c2ccsc2)CC1` displayed an RP-LC retention time of 851 s.
As to `Cc1cc(C)c(S(=O)(=O)N(CC(=O)N2CCNCC2)CC2CCCO2)cc1C` (stereo unspecified), the RP-LC retention time came out at 704 s.
Consider `Cc1cccc(-n2ccnc2SCC(=O)Nc2nccs2)c1C`, for which the RP-LC retention time came out at 670 s.
The result for `CNc1nccc(N2CCC(CC(=O)O)CC2)n1` reads 576 s; that for `COCCn1ccc2nc(C)c(C(=O)Nc3cccc(SC)c3)cc2c1=O`, 746 s; that for `COc1cc(OC)cc(-c2noc(-c3cn(C)c4ccc(C)cc4c3=O)n2)c1`, 894 s.
With `Cc1ccccc1C1CCCN1C(=O)c1c(Cl)cnn1C` (stereo unspecified) the figure was 892 s; with `O=C(NC1CC1)c1ccc(N2CCC(NCc3ccc(Br)cc3)C2)nc1` (stereo unspecified), 572 s.
With `CCCN(CC1CCOC1)S(=O)(=O)c1cccc(OC)c1` (stereo unspecified), the RP-LC retention time was 881 s.
`Cc1ccc(-c2nnc(Cc3nc(-c4ccccc4)no3)o2)cc1F` yielded an RP-LC retention time of 1050 s.
Turning to `Cc1cccc2nnc(N3CCN(C(=O)c4ccc(F)c(F)c4)CC3)n12`, the RP-LC retention time is 652 s.
The result for `Cn1nccc1C(=O)Nc1c(-c2cccc(F)c2)nc2sc(N3CCCCC3)nn12` reads 882 s.
On to `O=C(Cn1cnc2nc(N3CCCC(C(=O)NC4CC4)C3)sc2c1=O)NCc1cccs1` (stereo unspecified), for which the RP-LC retention time turned out to be 644 s.
`CCN1C(=O)CC[C@]2(CN(C)C(=O)Cc3cccc(F)c3)CCC[C@@H]12` came in with an RP-LC retention time of 752 s.
The compound `O=C(Cn1nc2c(Oc3ccccc3)nccn2c1=O)Nc1ccc(F)cc1Cl` displayed an RP-LC retention time of 796 s.
The result for `CCNC(=O)C1CCc2sc(C(=O)N(C)C)cc2C1` (stereo unspecified) reads 617 s; that for `Brc1ccc(Nc2nc(-c3ccc4c(c3)OCO4)cs2)nc1`, 1150 s.
`Cn1nc(-c2nnc(-c3ccccc3F)o2)c2c1CCN(S(=O)(=O)c1ccc(Cl)cc1)C2` had an RP-LC retention time of 979 s.
As for `Cc1ccc(CC(=O)NC2CCN(c3ccc(C)c(C)c3)C2=O)cc1` (stereo unspecified), the RP-LC retention time amounted to 904 s.
For `Cc1ccc(NC(=O)N2CCCC2c2nc(-c3ccc(F)cc3F)no2)cc1` (stereo unspecified), the RP-LC retention time was determined as 972 s.
Consider `CC1=NS(=O)(=O)N(C)C=C1C(=O)OCc1c(F)cccc1Cl`, for which the RP-LC retention time was determined as 968 s.
The result for `COc1cc2ncc(C#N)c(N3CCC(C(=O)Nc4cccc(Cl)c4)CC3)c2cc1OC` reads 816 s.
Turning to `Cc1ccc(-c2ccc3nn(Cc4cccc(Br)c4)c(=O)n3n2)cc1C`, the RP-LC retention time is 1010 s.
Turning to `Cn1cccc1CN(Cc1cccs1)C(=O)CN1C(=O)CCC1=O`, the RP-LC retention time stood at 731 s.
In the case of `CCCNC(=O)C1CCCN(C(=O)c2[nH]c(C)c(C(=O)OCC)c2C)C1` (stereo unspecified), the RP-LC retention time came to 712 s.
With `O=C(NC1CC1)c1ccc(OCC2CCCN2C(=O)c2cccc(F)c2)cc1` (stereo unspecified) the figure was 778 s.
The result for `COc1ccccc1C(=O)NCc1ccc2c(c1)ncn2C(C)C` reads 603 s; that for `COCc1noc(C2CN(C(=O)c3ccc(Cl)s3)CC23CCCC3)n1` (stereo unspecified), 962 s.
`Cc1sc(NC(=O)c2ccc(COc3ccc(F)cc3)o2)nc1-c1ccccc1` registered an RP-LC retention time of 1180 s.
Turning to `Cc1cc(C)n(-c2ccnc(N3CCC(C(=O)NCc4ccccn4)CC3)n2)n1`, the RP-LC retention time stood at 610 s.
Turning to `Cc1cc(C(=O)NCc2ccccn2)c2cc(Br)ccc2n1`, the RP-LC retention time was found to be 591 s.
Compound `Cc1cc(N2C=NS(=O)(=O)c3cccnc32)ccc1F` came in with an RP-LC retention time of 807 s.
`CCOC(=O)c1nc(NCCc2ccc(C)cc2)c2ccccc2n1` gave an RP-LC retention time of 821 s.
Turning to `COc1cc(OC)c(NC(=O)Cn2ccn3nc(-c4ccccc4)c(CO)c3c2=O)cc1Cl`, the RP-LC retention time is 849 s.
The result for `CCc1ccc(C2=C(C)C(N3CCCN(C(=O)c4ccccc4)CC3)=NS2(=O)=O)cc1` reads 896 s; that for `CCCCCn1c(=O)c2ccccc2n(Cc2nc(-c3ccc4c(c3)OCO4)no2)c1=O`, 1180 s.
The result for `CCn1cc(CN2CCC(N3C(=O)C4(CCCCC4)C3c3ccccc3)CC2)cn1` (stereo unspecified) reads 681 s; that for `CCOC(=O)CC(=O)Nc1nc(C2COc3ccccc3O2)cs1` (stereo unspecified), 921 s.
As to `Cn1ncc2c(N3CCSCC3)nc(C(=O)NCc3cccnc3)nc21`, the RP-LC retention time was found to be 570 s.
Turning to `CC(NC(=O)c1cn2c(n1)CSCC2)c1ccc(F)cc1` (stereo unspecified), the RP-LC retention time came to 638 s.
